# Columns and labels:
# [1] = target: T1, M1 muscarinic receptor (Homo sapiens, UniProt P11229); experiment: Functional mobilization of intracellular calcium (FLIPR) in M1-CHO cells; assay type: cell-based; settings: M1 receptor, calcium mobilization; for Emax: read-out: M1 Efficacy
# T1 construct: expressed in transfected cells; host or cells: CHO (M1-CHO)
# T1 sequence (P11229 1-460): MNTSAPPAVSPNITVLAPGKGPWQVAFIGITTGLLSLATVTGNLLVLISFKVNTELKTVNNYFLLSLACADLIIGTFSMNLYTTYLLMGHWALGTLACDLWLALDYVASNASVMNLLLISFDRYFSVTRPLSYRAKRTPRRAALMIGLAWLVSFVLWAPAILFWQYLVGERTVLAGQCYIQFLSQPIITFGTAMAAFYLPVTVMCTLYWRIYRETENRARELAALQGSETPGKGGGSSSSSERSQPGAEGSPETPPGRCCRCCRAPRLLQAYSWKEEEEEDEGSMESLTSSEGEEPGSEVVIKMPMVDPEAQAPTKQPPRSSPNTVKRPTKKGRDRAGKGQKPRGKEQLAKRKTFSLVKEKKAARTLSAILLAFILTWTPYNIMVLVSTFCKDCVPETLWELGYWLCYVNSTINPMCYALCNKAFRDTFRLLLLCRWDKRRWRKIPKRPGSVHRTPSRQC
# Summary of the method: (§1)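 Intracellular calcium rise is measured by FLIPR fluorescence over 60 sec in CHO cells carrying human M1 or M4 receptors. Compounds are tested alone as agonists, or pre-incubated 15 min (or co-applied) ahead of carbachol at its EC80 to detect inhibition.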
# [2] = target: T2, M4 muscarinic receptor (Homo sapiens, UniProt P08173); experiment: Functional mobilization of intracellular calcium (FLIPR) in M4-CHO cells; assay type: cell-based; settings: M4 receptor, calcium mobilization; for Emax: read-out: M4 Efficacy
# T2 construct: expressed in transfected cells; host or cells: CHO (M4-CHO)
# T2 sequence (P08173 1-479): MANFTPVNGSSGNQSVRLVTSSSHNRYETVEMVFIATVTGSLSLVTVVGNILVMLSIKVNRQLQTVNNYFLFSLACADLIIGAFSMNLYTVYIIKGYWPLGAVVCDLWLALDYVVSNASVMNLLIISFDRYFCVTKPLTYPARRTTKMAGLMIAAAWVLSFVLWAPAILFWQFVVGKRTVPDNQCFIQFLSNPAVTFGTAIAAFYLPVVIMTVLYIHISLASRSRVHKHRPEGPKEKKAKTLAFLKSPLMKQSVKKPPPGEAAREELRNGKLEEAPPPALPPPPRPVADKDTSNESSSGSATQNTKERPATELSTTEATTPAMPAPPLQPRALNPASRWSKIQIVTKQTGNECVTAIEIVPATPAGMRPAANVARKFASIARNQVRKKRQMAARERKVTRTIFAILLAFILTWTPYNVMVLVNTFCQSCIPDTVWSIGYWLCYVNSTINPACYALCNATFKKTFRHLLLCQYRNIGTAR
# Summary of the method: as §1
Compound,M1 Activity [1],Emax [1] [%],M4 Activity [2],Emax [2] [%],M1 Efficacy [1],M4 Efficacy [2]
CC(=O)N1CC2(CCN(C3CCC[C@@H](C)C3)CC2)c2cc(F)ccc21 (stereo partly shown) [compound 240],xx (activity was measured to be between 0.1 μM and 1.0 μM),65 to 85,x (activity was measured to be greater than 1.0 μM),> 85,,
Cc1ccc2c(c1)C1(CCN(CC3CCC4CCC3C4)CC1)CN2 (stereo not shown) [compound 241],xx (activity was measured to be between 0.1 μM and 1.0 μM),< 65,x (activity was measured to be greater than 1.0 μM),> 85,,
O=C1CC2(CCN(C3CCCCCC3)CC2)c2ccccc2N1 [compound 242],xxx (activity was measured to be less than 0.1 μM),65 to 85,xx (activity was measured to be between 0.1 μM and 1.0 μM),> 85,,
O=C(O[C@@H]1CCOC1)N1CC2(CCN(C3CC4CCC(C3)N4C(=O)O[C@@H]3CCOC3)CC2)c2cc(F)ccc21 (stereo partly shown) [compound 243],xxx (activity was measured to be less than 0.1 μM),,x (activity was measured to be greater than 1.0 μM),,xx (efficacy was calculated to be between 85% and 65%),xx (efficacy was calculated to be between 85% and 65%)
c1ccc2c(c1)NCC21CCN(C2CCC3CCC2C3)CC1 (stereo not shown) [compound 244],xx (activity was measured to be between 0.1 μM and 1.0 μM),65 to 85,x (activity was measured to be greater than 1.0 μM),65 to 85,,
CCOC(=O)N1CCC(N2CCC3(CC2)CN(C(C)=O)c2ccc(C4CC4)cc23)CC1 [compound 245],xx (activity was measured to be between 0.1 μM and 1.0 μM),< 65,xx (activity was measured to be between 0.1 μM and 1.0 μM),> 85,,
CC(C)C(=O)N(C)[C@H]1CC2(CCN(C[C@H]3C[C@H]4CC[C@H]3C4)CC2)c2ccccc21 [compound 246],xx (activity was measured to be between 0.1 μM and 1.0 μM),< 65,xx (activity was measured to be between 0.1 μM and 1.0 μM),> 85,,
CC(C)(C)COC(=O)N1C2CCC1CC(N1CCC3(CC1)COc1ccc(F)cc13)C2 (stereo not shown) [compound 247],xx (activity was measured to be between 0.1 μM and 1.0 μM),65 to 85,x (activity was measured to be greater than 1.0 μM),> 85,,
CC(=O)N1CC2(CCN(C3CCCCCCC3)CC2)c2cc(F)ccc21 [compound 248],xx (activity was measured to be between 0.1 μM and 1.0 μM),65 to 85,x (activity was measured to be greater than 1.0 μM),< 65,,
CCOC(=O)N1CCC(N2CCC3(CC2)CN(CC(C)=O)c2ccc(F)cc23)CC1 [compound 249],x (activity was measured to be greater than 1.0 μM),65 to 85,x (activity was measured to be greater than 1.0 μM),65 to 85,,
CCOC(=O)N1CCC(CN2CCC3(CC2)C[C@H](NC(C)=O)c2ccccc23)CC1 [compound 250],xx (activity was measured to be between 0.1 μM and 1.0 μM),65 to 85,x (activity was measured to be greater than 1.0 μM),65 to 85,,
CC(=O)N1CC2(CCN(C3CC[C@@H]4CC[C@@H]3C4)CC2)c2cc(F)ccc21 (stereo partly shown) [compound 251],xx (activity was measured to be between 0.1 μM and 1.0 μM),65 to 85,x (activity was measured to be greater than 1.0 μM),65 to 85,,
CCCOC(=O)N1CCC(N2CCC3(CC2)CN(C(C)=O)c2ccc(C)cc23)CC1 [compound 252],x (activity was measured to be greater than 1.0 μM),< 65,x (activity was measured to be greater than 1.0 μM),65 to 85,,
CCOC(=O)N1CCC(N2CCC3(CC2)CN(C(C)=O)c2ccc(-c4ccc(C#N)cc4)cc23)CC1 [compound 253],xx (activity was measured to be between 0.1 μM and 1.0 μM),65 to 85,x (activity was measured to be greater than 1.0 μM),65 to 85,,
CCOC(=O)N1CCC(N2CCC3(CC2)CN(C(=O)C2CCC2)c2ccc(F)cc23)CC1 [compound 254],x (activity was measured to be greater than 1.0 μM),65 to 85,x (activity was measured to be greater than 1.0 μM),65 to 85,,
CCNC(=O)N1CC2(CCN(C3CC4CCC(C3)N4C(=O)OCC)CC2)c2cc(F)ccc21 (stereo not shown) [compound 255],x (activity was measured to be greater than 1.0 μM),< 65,x (activity was measured to be greater than 1.0 μM),< 65,,
CCOC(=O)N1CCC(CN2CCC3(CC2)CN(C(C)=O)c2ccc(Cl)cc23)CC1 [compound 256],xx (activity was measured to be between 0.1 μM and 1.0 μM),< 65,xx (activity was measured to be between 0.1 μM and 1.0 μM),< 65,,
Clc1ccc2c(c1)C1(CCN(C3CCOCC3)CC1)CO2 [compound 257],x (activity was measured to be greater than 1.0 μM),> 85,x (activity was measured to be greater than 1.0 μM),< 65,,
O=C(OC1CCCC1)N1C2CCC1CC(N1CCC3(CCc4ccccc43)CC1)C2 (stereo not shown) [compound 258],x (activity was measured to be greater than 1.0 μM),65 to 85,x (activity was measured to be greater than 1.0 μM),< 65,,
O=C1Nc2ccccc2C12CCN(C1CC3CCC1C3)CC2 (stereo not shown) [compound 259],x (activity was measured to be greater than 1.0 μM),65 to 85,x (activity was measured to be greater than 1.0 μM),< 65,,
CCOC(=O)N1CCC(N2CCC3(CC2)CN(C(=O)c2ccncc2)c2ccc(F)cc23)CC1 [compound 260],xxx (activity was measured to be less than 0.1 μM),65 to 85,x (activity was measured to be greater than 1.0 μM),< 65,,
CC(=O)N[C@H]1CC2(CCN(C3CCCCCCC3)CC2)c2ccccc21 [compound 261],xx (activity was measured to be between 0.1 μM and 1.0 μM),< 65,x (activity was measured to be greater than 1.0 μM),< 65,,
CCOC(=O)N1CCC(N2CCC3(CC2)CN(C(=O)c2ccccc2OC)c2ccc(F)cc23)CC1 [compound 262],x (activity was measured to be greater than 1.0 μM),< 65,x (activity was measured to be greater than 1.0 μM),< 65,,
C1=C[C@H]2C[C@H]1C[C@@H]2CN1CCC2(CCc3ccccc32)CC1 [compound 263],xxx (activity was measured to be less than 0.1 μM),< 65,xxx (activity was measured to be less than 0.1 μM),< 65,,
COCCOC(=O)N1CCC(N2CCC3(CC2)CN(C(=O)N(C)C)c2ccc(F)cc23)CC1 [compound 265],xx (activity was measured to be between 0.1 μM and 1.0 μM),< 65,xx (activity was measured to be between 0.1 μM and 1.0 μM),< 65,,
CCCOC(=O)N1CCCC(N2CCC3(CC2)CN(C(C)=O)c2ccc(F)cc23)CC1 (stereo not shown) [compound 266],x (activity was measured to be greater than 1.0 μM),< 65,x (activity was measured to be greater than 1.0 μM),< 65,,
CCOC(=O)N1CCC(N2CCC3(CC2)CN(C(=O)c2ccccc2F)c2ccc(F)cc23)CC1 [compound 267],x (activity was measured to be greater than 1.0 μM),< 65,x (activity was measured to be greater than 1.0 μM),< 65,,
CC(=O)N1CC2(CCN(C3CCOCC3)CC2)c2cc(F)ccc21 [compound 268],x (activity was measured to be greater than 1.0 μM),< 65,x (activity was measured to be greater than 1.0 μM),< 65,,
